Source: patent publication US20080146656A1, “Use of a steroid sulphatase inhibitor for inhibiting the synthesis of androstenedione and/or testosterone” (priority 2005, published 2008)

Columns and labels:
[1] = system: plasma androstenedione; oestrone sulphate (E1S) to oestrone (E1) ratio; experiment: Male volunteer study: plasma steroids after EMATE; settings: 40 mg
STS = target: T1, STS (Homo sapiens, UniProt P08842); experiment: Male volunteer study: STS activity after EMATE; assay type: in vivo, volunteer subject; settings: 40 mg, FIG. 12
T1 construct: endogenous in cells; host or cells: volunteer subject
T1 sequence (P08842 22-583): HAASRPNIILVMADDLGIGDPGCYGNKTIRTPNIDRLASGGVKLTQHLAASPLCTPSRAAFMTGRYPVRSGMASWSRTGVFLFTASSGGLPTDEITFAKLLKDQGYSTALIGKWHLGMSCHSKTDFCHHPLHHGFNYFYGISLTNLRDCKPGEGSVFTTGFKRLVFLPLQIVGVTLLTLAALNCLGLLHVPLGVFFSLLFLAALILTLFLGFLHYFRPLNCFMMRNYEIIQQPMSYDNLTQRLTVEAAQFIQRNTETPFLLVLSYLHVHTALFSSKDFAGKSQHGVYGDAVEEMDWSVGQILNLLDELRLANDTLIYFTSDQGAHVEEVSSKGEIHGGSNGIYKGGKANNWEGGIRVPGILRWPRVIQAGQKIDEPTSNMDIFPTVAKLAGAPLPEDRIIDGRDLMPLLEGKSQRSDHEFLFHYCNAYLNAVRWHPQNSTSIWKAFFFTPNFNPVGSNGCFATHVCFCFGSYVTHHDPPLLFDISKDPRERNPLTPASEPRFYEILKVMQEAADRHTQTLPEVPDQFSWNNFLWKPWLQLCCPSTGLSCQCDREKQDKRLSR

[2] = system: serum androstenedione, testosterone, E1, E2, DHEAS and DHEA; experiment: Phase I trial: serum steroid hormone concentrations after oral STX64; assay type: in vivo, humans
Method: The assay for the determination of androstenedione, testosterone, E1 and E2 was the gas chromatographic tandem mass spectroscopic method of Wang et al., (2005). Recombinant cell ultra-sensitive bioassay for measurements of estrogens in postmenopausal women. J Clin Endocrinol Metab (In press).
(§1) In the Phase I trial STX64 (5 mg or 20 mg) was administered orally as a single test dose on day 1 of the trial. Twenty four hours (24 h) later a blood sample was taken to evaluate STS activity in peripheral blood lymphocytes (PBLs) and also to measure steroid hormone concentrations. On day 8 of the trial patients received daily dosing for 5 days with a further blood sample being collected at the end of this period on day 12 (D12).
Serum concentrations of the steroids listed below were measured: […]

steroid sulphatase (STS) = target: T2, steroid sulphatase (STS) (Homo sapiens, UniProt P08842); experiment: Phase I trial: STS activity in peripheral blood lymphocytes after oral STX64; assay type: in vivo, humans
T2 construct: endogenous in cells; host or cells: peripheral blood lymphocytes (PBLs) of patients dosed orally with STX64
T2 sequence (P08842 22-583): T1 sequence (P08842 22-583)
Method: as §1
STS activity was measured in PBLs isolated from 10 ml blood collected using a vacutainer. The enzyme in the cells was solubilized with phosphate-buffered saline/Triton X-100 and STS activity measured using a physiological (2-3 nM) substrate concentration of ^3H estrone sulphate [^3H-E1S] over a 20 h period.

SMILES	persistence of the reduction in plasma androstenedione concentration [1]	reduction in the plasma androstenedione concentration [1]	oestrone sulphate (E1S) to oestrone (E1) ratio ([1]; FIG. 12)	STS activity (STS)	serum androstenedione concentrations ([2]; 5 mg and 20 mg doses, FIG. 11 (ii))	serum testosterone concentrations ([2]; 5 mg and 20 mg doses, FIG. 11 (iii))	serum androstenedione concentration ([2]; 24 h and day 12 time points after administration, FIG. 3)	serum testosterone concentration ([2]; 24 h and day 12 time points after administration, FIG. 4)	serum E1 concentration ([2]; Phase I trial, FIG. 5)	serum E2 concentration ([2]; Phase I trial, FIG. 6)	ratios of DHEAS: DHEA ([2]; both the 5 mg and 20 mg doses, FIG. 11 (i))	serum Adione concentration ([2]; individual patient, 24 h after initial single dose, FIGS. 7 and 9)	Adione concentrations ([2]; individual patient, following daily dosing for 5 days (D5+8 h), FIGS. 7 and 9)	inhibition at 5 mg (steroid sulphatase (STS); 5 mg dose, read-out: inhibition of steroid sulphatase (STS) activity, as measured in peripheral blood lymphocytes) [%]	inhibition at 20 mg (steroid sulphatase (STS); 20 mg dose, read-out: inhibition of steroid sulphatase (STS) activity, as measured in peripheral blood lymphocytes) [%]	STS activity, as measured in PBLs (steroid sulphatase (STS); 24 h after the test dose and on day 12 of the trial, oral 5 mg or 20 mg, FIG. 2)
C[C@]12CC[C@@H]3c4ccc(OS(N)(=O)=O)cc4CC[C@H]3[C@@H]1CCC2=O [EMATE, oestrone-3-O-sulphamate]	up to 15 days	20-30%	marked increase	almost completely inhibited												
NS(=O)(=O)Oc1ccc2c3c(c(=O)oc2c1)CCCCC3 [STX64]					marked decreases	marked decreases	decreased significantly	decreased significantly	significant decreases	significant decreases	marked increase	marked decrease	further decrease	> 90	> 90	almost completely inhibited
